In patent US5095038A, “Carbocyclic compounds useful as leukotriene antagonists” (ICI Americas Inc., priority 1989, dated 1992):

Target: T1, LTD4 /E4 receptors (Cavia porcellus, UniProt Q2NNR5)
T1 construct: membrane fractions, containing the LTD4 /E4 receptors, are prepared from guinea-pig lung parenchyma; from tissue; host or cells: guinea-pig lung parenchyma membrane fractions
T1 sequence (Q2NNR5 1-340): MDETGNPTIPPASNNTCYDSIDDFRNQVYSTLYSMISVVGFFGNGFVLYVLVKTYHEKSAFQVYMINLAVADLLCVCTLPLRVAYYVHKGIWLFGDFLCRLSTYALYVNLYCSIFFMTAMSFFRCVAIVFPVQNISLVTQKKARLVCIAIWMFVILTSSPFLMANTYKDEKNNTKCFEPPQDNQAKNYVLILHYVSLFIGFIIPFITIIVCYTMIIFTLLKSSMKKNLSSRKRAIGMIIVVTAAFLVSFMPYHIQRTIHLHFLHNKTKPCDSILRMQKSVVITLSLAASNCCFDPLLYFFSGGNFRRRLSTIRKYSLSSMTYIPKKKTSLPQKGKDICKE
Assay: receptor-ligand binding assay (3H-LTD4)
Conditions: membrane fractions from guinea-pig lung parenchyma, 1nM 3H-LTD4, 30 minutes at 22° C.; Ki from IC50 by Cheng-Prusoff
Experimental: According to this procedure, membrane fractions, containing the LTD4 /E4 receptors, are prepared from guinea-pig lung parenchyma and incubated for 30 minutes at 22° C. with 1nM ^3 H-LTD4 in the absence or presence of tested antagonist. Specific binding, determined under conditions that prevent enzymatic metabolism of ^3 H-LTD4, is the net result of total ^3 H-LTD4 binding minus nonspecific binding determined in the presence of 1-2000 fold excess unlabelled LTD . Each assay is done in duplicate and results (Ki values) are typically a mean of several such determinations in individual receptor batches.
The % inhibition by a tested antagonist, relative to control binding (vehicle alone), is expressed as a fraction of log[antagonist] concentration (in molar units) and the half-maximal inhibition (IC50) determined by computerized non-linear least-square analysis. The binding constant (Ki) is then calculated from IC50 by the Cheng-Prusoff equation: [formula] where [L] is ^3 H-LTD4 concentraton and Kd is the affinity constant of LTD4 to this receptor, determined separately for each batch. (Biochem. Pharmacol. 22: 3099-3108, 1973).

SMILES: CCC(C)CNC(=O)c1ccc2cccc(Cc3ccc(C(=O)NS(=O)(=O)c4ccccc4C)cc3OC)c2c1 (stereo not shown) [Example 10, 3-Methoxy-4-[7-(2-methylbutylcarbamoyl)naphth-1-ylmethyl]-N-(2-methylphenylsulfonyl)benzamide]
- Ki: 3.16 nM
